Experimental data from patent US8383637B2, “2-amino-quinazoline derivatives useful as inhibitors of β-secretase (BACE)” (Jansssen Pharmaceutica N.V., priority 2004, dated 2013).
Where two headings read alike, the source gives them in different places.

Molecular target: T1, β-secretase(BACE) (Homo sapiens, UniProt P56817)
T1 construct: purchased Panvera
Assay: BACE FS1% Inhibition Assay
Assay type: biochemical
Conditions: FS1 substrate
Procedure, shortened: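 Human BACE (4 μg/mL working solution) preincubated 20 min at room temperature with compound, then FS1 substrate (300 μg/mL working solution) added and incubated 1 h at room temperature. Percent inhibition calculated at each compound concentration against blank and vehicle controls.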

T1 sequence (P56817 46-501): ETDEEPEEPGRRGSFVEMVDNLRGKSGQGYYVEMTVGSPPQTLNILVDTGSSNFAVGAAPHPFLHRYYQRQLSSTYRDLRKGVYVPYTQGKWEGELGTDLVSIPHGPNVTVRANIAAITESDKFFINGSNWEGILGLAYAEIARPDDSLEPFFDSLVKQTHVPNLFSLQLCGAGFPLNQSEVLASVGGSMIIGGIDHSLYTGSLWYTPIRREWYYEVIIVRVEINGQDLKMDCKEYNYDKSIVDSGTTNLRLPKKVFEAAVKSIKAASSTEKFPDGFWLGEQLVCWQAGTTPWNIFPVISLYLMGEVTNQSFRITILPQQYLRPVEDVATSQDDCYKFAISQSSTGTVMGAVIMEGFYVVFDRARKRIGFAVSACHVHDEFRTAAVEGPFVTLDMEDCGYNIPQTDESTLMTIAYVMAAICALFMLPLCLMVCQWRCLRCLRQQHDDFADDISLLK

Row | % Inhibition (FS) 0.3 μM (0.3 μM test compound) [%] | % Inhibition (FS) 1 μM (1 μM test compound) [%] | % Inhibition (FS) 3 μM (3 μM test compound) [%] | Structure (SMILES) | further results
1 | <30 | <30 | 32 | Cc1ccc(-c2ccc3c(c2)CN(CCNC(=O)C2CCCCC2)C(N)=N3)cc1 [Compound 628] | –
2 | <30 | <30 | <30 | CC1CCC(NC(=O)c2cccc(CN3Cc4cc(Oc5ccccc5)ccc4N=C3N)c2)CC1 (centres unmarked) [Compound 213] | –
3 | – | – | – | CCCCC(CC)C(=O)NCCN1Cc2cc(-c3ccc4ccccc4c3)ccc2N=C1N (centres unmarked) [Compound 669] | % Inhibition (FS) (0.3 μM test compound): <30%; % Inhibition (FS) (1 μM test compound): <30%; % Inhibition (FS) (3 μM test compound): 32%
4 | <30 | <30 | <30 | CN(C(=O)c1cccc(CN2Cc3cc(Nc4ccc(N5CCOCC5)cc4)ccc3N=C2N)c1)C1CCCCC1 [Compound 439] | –
5 | <30 | <30 | <30 | NC1=Nc2ccc(Oc3ccccc3)cc2CN1C1CCCCN(C(=O)C2CCCCC2)C1 (centres unmarked) [Compound 551] | –
6 | <30 | <30 | 63 | CN(C(=O)c1cccc(CN2Cc3cc(Sc4ccc5ccccc5c4)ccc3N=C2N)c1)C1CCCCC1 [Compound 415] | –
7 | <30 | <30 | 48 | CN(C(=O)c1ncoc1CN1Cc2cc(Oc3ccccc3)ccc2N=C1N)C1CCCCC1 [Compound 641] | –
8 | – | – | – | Cc1ccccc1-c1ccc2c(c1)CN(CCNC(=O)C1CCC(C(F)(F)F)CC1)C(N)=N2 (centres unmarked) [Compound 694] | % Inhibition (FS) (0.3 μM test compound): <30%; % Inhibition (FS) (1 μM test compound): <30%; % Inhibition (FS) (3 μM test compound): 84%
9 | <30 | <30 | 48 | COc1ccc(F)cc1-c1ccc2c(c1)CN(CCNC(=O)C1CCCCC1)C(N)=N2 [Compound 631] | –
10 | <30 | <30 | 72 | Cc1cc(C)cc(Sc2ccc3c(c2)CN(Cc2cccc(C(=O)N(C)C4CCCCC4)c2)C(N)=N3)c1 [Compound 409] | –
11 | <30 | <30 | <30 | CN(C(=O)c1ncoc1C(Cc1ccccc1)N1Cc2cc(Oc3ccccc3)ccc2N=C1N)C1CCCCC1 (centres unmarked) [Compound 559] | –
12 | – | – | – | CN(C(=O)CC[C@@H](C1CCCCC1)N1Cc2cc(Oc3ccccc3)ccc2N=C1N)C1CCC(=O)CC1 [Compound 711] | % Inhibition (FS) (0.3 μM test compound): <30%; % Inhibition (FS) (1 μM test compound): 43%; % Inhibition (FS) (3 μM test compound): 113%
13 | <30 | <30 | 57 | CN(C(=O)c1cccc(C(CC2CCCCC2)N2Cc3cc(Oc4ccccc4)ccc3N=C2N)c1)C1CCCCC1 (centres unmarked) [Compound 310] | –
14 | <30 | 45 | 85 | NC1=Nc2ccc(Oc3ccccc3)cc2CN1C(CC(=O)NC1C2CC3CC(C2)CC1C3)C1CCCCC1 (centres unmarked) [Compound 314] | –
15 | <30 | <30 | <30 | CN(C(=O)c1cccc(CN2Cc3cc(Oc4cccc(-c5ccc6ccccc6n5)c4)ccc3N=C2N)c1)C1CCCCC1 [Compound 473] | –
16 | <30 | <30 | <30 | CN(C(=O)c1cccc(CN2Cc3cc(-c4ccncc4)ccc3N=C2N)c1)C1CCCCC1 [Compound 168] | –
17 | <30 | 39 | 67 | NC1=Nc2ccc(Oc3ccccc3)cc2CN1Cc1cccc(C(=O)N2CCCCC2)c1 [Compound 443] | –
18 | <30 | <30 | <30 | CC(C)COc1ccc2c(c1)CN(Cc1cccc(C(=O)N(C)C3CCCCC3)c1)C(N)=N2 [Compound 518] | –

Row | % Inhibition (FS) 0.3 μM (0.3 μM test compound) [%] | % Inhibition (FS) 1 μM (1 μM test compound) [%] | % Inhibition (FS) 3 μM (3 μM test compound) [%] | Structure (SMILES) | further results
19 | – | – | – | NC1=Nc2ccc(Oc3ccccc3)cc2CN1C1CCN(C(=O)C2CCCCC2)CC1 [Compound 522] | inhibition at 0.3 µM (0.3 μM test compound, read-out: % Inhibition (FS) 0.3 μM): < 30%; inhibition at 1 µM (1 μM test compound, read-out: % Inhibition (FS) 1 μM): < 30%; inhibition at 3 µM (3 μM test compound, read-out: % Inhibition (FS) 3 μM): 79%
20 | <30 | <30 | <30 | COc1cccc(OC)c1Oc1ccc2c(c1)CN(CCC(=O)NC1C3CC4CC(C3)CC1C4)C(N)=N2 (centres unmarked) [Compound 465] | –
21 | <30 | 36 | 98 | CCCC(CCC)C(=O)N1CCC(CN2Cc3cc(Oc4ccccc4)ccc3N=C2N)CC1 [Compound 526] | –
22 | – | – | <30 | NC1=Nc2ccc(Oc3ccccc3)cc2CN1CCNC(=O)CCc1ccccc1 [Compound 155] | % Inhibition (FS) 10 μM (10 μM test compound): 49%
23 | <30 | 37 | 74 | CC(=O)Nc1cccc(-c2ccc3c(c2)CN(Cc2cccc(C(=O)N(C)C4CCCCC4)c2)C(N)=N3)c1 [Compound 166] | –
24 | <30 | 36 | <30 | NC1=Nc2ccc(Oc3ccccc3)cc2CN1C1CCCN(C(=O)C2CCCCC2)C1 (centres unmarked) [Compound 611] | –
25 | <30 | <30 | 41 | CC(C)[C@@H](CNC(=O)C1CCCCC1)N1Cc2cc(Oc3ccccc3)ccc2N=C1N [Compound 528] | –
26 | <30 | <30 | 33 | CC(C)(C)OC(=O)NCc1cccc(CN2Cc3cc(Oc4ccccc4)ccc3N=C2N)c1 [Compound 315] | –
27 | <30 | <30 | −3 | CNC(=O)c1ccccc1Sc1ccc2c(c1)CN(Cc1cccc(C(=O)N(C)C3CCCCC3)c1)C(N)=N2 [Compound 416] | –
28 | <30 | <30 | 38 | CN(C(=O)c1cccc(CN2Cc3cc(Nc4ccc(C5CCCCC5)cc4)ccc3N=C2N)c1)C1CCCCC1 [Compound 437] | –
29 | – | – | – | CC(C)(C)C(=O)NCCN1Cc2cc(-c3cnc4ccccc4c3)ccc2N=C1N [Compound 674] | % Inhibition (FS) (0.3 μM test compound): 36%; % Inhibition (FS) (1 μM test compound): <30%; % Inhibition (FS) (3 μM test compound): 41%
30 | <30 | <30 | 53 | CC(C)c1ccccc1Oc1ccc2c(c1)CN(CCC(=O)NC1C3CC4CC(C3)CC1C4)C(N)=N2 (centres unmarked) [Compound 466] | –
31 | <30 | <30 | <30 | NC1=Nc2ccc(Oc3ccccc3)cc2CN1C(CC(=O)NC1CCCCC1)c1ccccc1 (centres unmarked) [Compound 299] | –
32 | – | – | – | CN(CC(=O)O)C(=O)CCC(C1CCCCC1)N1Cc2cc(Oc3ccccc3)ccc2N=C1N (centres unmarked) [Compound 767] | % Inhibition (FS) (0.3 μM test compound): <30%; % Inhibition (FS) (1 μM test compound): 71%; % Inhibition (FS) (3 μM test compound): 106%
33 | <30 | <30 | 52 | CC(C)C(CC(=O)NC1CCCCC1)N1Cc2cc(Oc3ccccc3)ccc2N=C1N (centres unmarked) [Compound 401] | –
34 | – | – | – | NC1=Nc2ccc(Br)cc2CN1CCC(=O)NC12CC3CC(CC(C3)C1)C2 [Compound 804] | inhibition at 0.3 µM (0.3 μM test compound, read-out: % Inhibition (FS)): < 30%; inhibition at 1 µM (1 μM test compound, read-out: % Inhibition (FS)): < 30%; inhibition at 3 µM (3 μM test compound, read-out: % Inhibition (FS)): < 30%
35 | <30 | <30 | <30 | CC(C)(C)C(=O)NCCN1Cc2cc(-c3ccncc3)ccc2N=C1N [Compound 573] | –
